As usually defined, the LD50 is the dose at which mortality reaches 50%.

Experimental findings from US20250313526A1, “PYRETHROID COMPOUND CONTAINING DOUBLE BONDS AND CYANO GROUPS, SYNTHESIS METHOD THEREFOR, AND APPLICATION THEREOF” (Jiangsu Yangnong Chemical Co., Ltd., priority 2022, published 2025) are described below.

Assay type in all cases: in vivo
For one data set, the system named is Flies. Briefly: Insecticidal aerosol efficacy, sealed drum apparatus (GB/T13917.2-2009), flies. The following applies: 1 g sprayed; for Mortality rate: aerosol 0.3% active ingredient, 24 h; for KT50: aerosol containing 0.3% active ingredient. As for the experimental part:
(§1) 0.3 parts by weight of compound 1 with 59.7 parts by weight of kerosene were heated and evenly mixed to prepare an insecticide. The resulting preparation was placed in an aerosol can equipped with a valve, through which 40.0 parts by weight of propane and butane were injected underpressure, to obtain an insecticidal aerosol containing 0.3% compound 1.
(§2) The insecticidal aerosol was tested for efficacy on mosquitoes, flies, and German cockroaches in accordance with GB/T13917.2-2009, using a sealed drum apparatus. The specific process was as follows: placing the test insects into a tank, and after the test insects resumed normal activities, quantitatively spraying 1 g of the agent from the insecticidal aerosol can, pulling out the baffle after 1 min to make the test insects in contact with the agent, immediately starting timing and recording the number of the test insects knocked down at regular intervals, transferring all the test insects to a clean insect rearing cage after 20 min, and checking the number of dead insects after 24 h, wherein the German cockroaches were tested for 72-h mortality rate.
(§3) The aerosols of compounds 1-3, Momflurothrin and tetramethylfluthrin were prepared according to Test Example 2, and were tested for efficacy.

Data set [1] has as its system female mosquitoes of Culex pipiens pallens. Briefly: Mosquito-repellent incense mosquito-killing efficacy, sealed drum apparatus (GB/T13917.4-2009). The following applies: for KT50: mosquito-repellent incense W1-W5, active ingredient 0.04 w/w %, incense burnt 1 min, 20 female Culex pipiens pallens. Here is the method:
99.96 parts by weight of a mixture consisting of corn starch, carbon powder and wood powder (1:5:4) were added with 120 parts by mass of water, kneaded into shape, and then dried to form a mosquito-repellent incense substrate (with a diameter of 12.0 cm, a thickness of 4 mm, and a pair weighing 40 g).
On the other hand, a 0.4 w/v % solution of compound 1 in kerosene was prepared. The set of incense substrate was uniformly spray-coated with 4 ml of the above solution using a microsyringe, and then left to dry at room temperature for 3 h to obtain a set of mosquito-repellent incense W1 containing 0.04 w/w % compound 1.
Similarly, compounds 2-3 of the present invention shown in Table 1, as well as Momfluorothrin and tetramethylfluthrin were prepared respectively to obtain corresponding mosquito-repellent incenses W2 to W5.
The mosquito-repellent incenses W2 to W5 were measured and compared in terms of mosquito-killing efficacy in accordance with GB/T13917.4-2009. […] The specific process was as follows: sucking 20 test mosquitoes with a mosquito suction tube, placing them into a sealed drum apparatus, taking a section of mosquito-repellent incense to be tested and placing it on an incense holder, lighting the incense and starting timing, removing the mosquito-repellent incense after 1 min, and recording the number of test mosquitos knocked down at regular intervals.

The test system of another data set is German cockroaches. Briefly: Insecticidal aerosol efficacy, sealed drum apparatus (GB/T13917.2-2009), German cockroaches. The following applies: 1 g sprayed; for Mortality rate: aerosol 0.3% active ingredient, 72 h; for KT50: aerosol containing 0.3% active ingredient. As for the experimental part: as §1, §2, §3
Another data set has as its system Mosquitoes. Briefly: Insecticidal aerosol efficacy, sealed drum apparatus (GB/T13917.2-2009), mosquitoes. The conditions noted are these: for Mortality rate: aerosol 0.3% active ingredient, 24 h; for Mortality rate / KT50: 1 g sprayed, mosquitoes; for KT50: aerosol containing 0.3% active ingredient. As for the experimental part: as §1, §2, §3
Data set [2] deals with rat. The data set is described as follows: Rat acute oral toxicity.
The nature of the next data set: Rat acute oral toxicity. The conditions noted are these: in vivo, read-out: rat acute oral toxicity median lethal dose (LD50).
Data set [3] has as its system rat. The data set is described as follows: Rat acute dermal toxicity.
A short description of data set [4]: Rat acute dermal toxicity. The following applies: in vivo, topical or ocular, read-out: rat acute dermal toxicity median lethal dose (LD50).

Turning to `COCc1c(F)c(F)c(COC(=O)C2C(C)(C)C2(C)C)c(F)c1F` [tetramethylfluthrin, reference compound], the Mortality rate in the data set on Flies stood at 80%; in the data set with German cockroaches it was 65%; with Mosquitoes, 100%. The KT50 was 8.56 min in the data set on Flies, 9.23 min in data set [1], 9.12 min in the data set with German cockroaches and 6.46 min in the data set with Mosquitoes.

Consider `CC1(C)C(/C=C\C#N)C1C(=O)OCc1cc(F)cc(F)c1F` (centres unmarked) [Compound 1, 2,3,5-trifluorobenzyl (Z)-3-(2-cyanovinyl)-2,2-dimethylcyclopropanecarboxylate], for which the Mortality rate was found to be 100% in the data set on Flies, 95% with German cockroaches and 100% with Mosquitoes. Moreover, the KT50 is reported as 2.32 min in the data set with Flies, 2.45 min in data set [1], 4.05 min in the data set with German cockroaches and 1.33 min in the data set with Mosquitoes.

As for `CC1(C)C(/C=C\C#N)C1C(=O)OCc1c(F)c(F)cc(F)c1F` (centres unmarked) [Compound 3, 2,3,5,6-tetrafluorobenzyl (Z)-3(2-cyanovinyl)-2,2-dimethylcyclopropanecarboxylate], the “acute oral toxicity classification” value with rat [2] was “slightly toxic”. For the same compound, the LD50 (in “Rat acute oral toxicity”; in data set [4]) was over 5000 mg/kg in each case. In addition, the “acute dermal toxicity classification” value in the data set on rat [3] is reported as “slightly toxic”. Moreover, the Mortality rate in the data set on Flies came to 100%; in the data set with German cockroaches, 95%; in the data set on Mosquitoes it was 100%. The KT50 in the data set with Flies turned out to be 3.45 min; in data set [1], 4.65 min; in the data set with German cockroaches it was 5.52 min; in the data set with Mosquitoes, 2.45 min.

As for `CC1(C)C(/C=C\C#N)C1C(=O)OCc1c(F)ccc(F)c1F` (centres unmarked) [Compound 2, 2,3,6-trifluorobenzyl (Z)-3-(2-cyanovinyl)-2,2-dimethylcyclopropanecarboxylate], the values for the Mortality rate in the data set with Flies, in the data set with German cockroaches and in the data set on Mosquitoes were 100%, 90% and 100%, respectively. In addition, the KT50 in the data set on Flies turned out to be 4.65 min; in data set [1], 5.42 min; in the data set with German cockroaches it was 6.26 min; in the data set on Mosquitoes it was 3.58 min.

Consider `COCc1c(F)c(F)c(COC(=O)C2C(/C=C(/C)C#N)C2(C)C)c(F)c1F` (centres unmarked) [Momfluorothrin, reference compound], for which the figures for the Mortality rate in the data set with Flies, in the data set on German cockroaches and in the data set with Mosquitoes were 70%, 60% and 100%, respectively. Moreover, the KT50 with Flies turned out to be 15.28 min; in data set [1], 27.87 min; in the data set on German cockroaches, 17.56 min; in the data set with Mosquitoes it was 12.35 min. Moreover, in data set [1] (as mosquito-repellent incense), the “activity as mosquito-repellent incense” value was “relatively poor activity”. The “knockdown activity against mosquitoes” value in the data set with Mosquitoes (as an aerosol in a cylindrical container) is “good knockdown activity”.
